Structures are written as SMILES. Bounds are passed on as bounds.

The target in this experiment is Sigma non-opioid intracellular receptor 1 (Cavia porcellus) (UniProt Q60492). Put plainly: Binding affinity for sigma 1 opioid receptor, measured on guinea pig brain membranes using [3H]- (+)-pentazocine as radioligand.
Chain of Sigma non-opioid intracellular receptor 1 (Cavia porcellus) (Q60492 whole entry, looked up): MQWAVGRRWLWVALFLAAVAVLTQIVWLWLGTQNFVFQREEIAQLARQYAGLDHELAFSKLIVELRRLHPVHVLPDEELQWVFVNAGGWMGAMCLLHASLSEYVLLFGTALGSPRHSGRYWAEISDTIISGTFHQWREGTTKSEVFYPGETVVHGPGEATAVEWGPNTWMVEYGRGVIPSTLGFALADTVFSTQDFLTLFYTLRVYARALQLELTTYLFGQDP
For the molecule `O=C(Cc1c[nH]c2ccccc12)NC1CCN(Cc2ccccc2)CC1` [N-(1-Benzyl-piperidin-4-yl)-2-(1H-indol-3-yl)-acetamide], the Ki worked out at 10.9 nM.
Under `O=C(Cc1ccncc1)NC1CCN(Cc2ccccc2)CC1` [N-(1-Benzyl-piperidin-4-yl)-2-pyridin-4-yl-acetamide] stands 298 nM.
The molecule `O=C(Cc1cccc(Br)c1)NC1CCN(Cc2ccc(I)cc2)CC1` [2-(3-Bromo-phenyl)-N-[1-(4-iodo-benzyl)-piperidin-4-yl]-acetamide] registered a Ki of 1.78 nM.
Under `O=C(Cc1ccccc1F)NC1CCN(Cc2ccc(F)cc2)CC1` [N-[1-(4-Fluoro-benzyl)-piperidin-4-yl]-2-(2-fluoro-phenyl)-acetamide] stands 3.15 nM.
Under `O=C(Cc1ccccc1)NC1CCN(Cc2ccc(C(F)(F)F)cc2)CC1` [2-Phenyl-N-[1-(4-trifluoromethyl-benzyl)-piperidin-4-yl]-acetamide] stands 87 nM; under `O=C(Cc1ccc2ccccc2c1)NC1CCN(Cc2ccccc2)CC1` [N-(1-Benzyl-piperidin-4-yl)-2-naphthalen-2-yl-acetamide], 61.8 nM.
Under `O=C(Cc1cccc(Br)c1)NC1CCN(Cc2ccc(F)cc2)CC1` [2-(3-Bromo-phenyl)-N-[1-(4-fluoro-benzyl)-piperidin-4-yl]-acetamide] stands 1.21 nM; under `O=C(Cc1ccccc1)NC1CCN(Cc2cccc(F)c2)CC1` [N-[1-(3-Fluoro-benzyl)-piperidin-4-yl]-2-phenyl-acetamide], 8.22 nM; under `O=C(CSc1ncccn1)NC1CCN(Cc2ccccc2)CC1` [N-(1-Benzyl-piperidin-4-yl)-2-(pyrimidin-2-ylsulfanyl)-acetamide], 150 nM.
Molecule `O=C(Cc1c[nH]c2ccc(Br)cc12)NC1CCN(Cc2ccccc2)CC1` [N-(1-Benzyl-piperidin-4-yl)-2-(5-bromo-1H-indol-3-yl)-acetamide] returned a Ki of 51.9 nM.
Take `O=C(Cc1cccs1)NC1CCN(Cc2ccccc2)CC1` [N-(1-Benzyl-piperidin-4-yl)-2-thiophen-2-yl-acetamide]: affinity was put at a Ki of 3.93 nM.
In turn, `O=C(Cc1ccccc1)NC1CCN(Cc2ccccc2F)CC1` [N-[1-(2-Fluoro-benzyl)-piperidin-4-yl]-2-phenyl-acetamide] showed a Ki of 10.2 nM.
Under `O=C(Cc1cccc(Cl)c1)NC1CCN(Cc2cccc(I)c2)CC1` [2-(3-Chloro-phenyl)-N-[1-(3-iodo-benzyl)-piperidin-4-yl]-acetamide] stands 2.31 nM.
Molecule `O=C(Nc1cccc2ccccc12)NC1CCN(Cc2ccccc2)CC1` [1-(1-Benzyl-piperidin-4-yl)-3-naphthalen-1-yl-urea] yielded a Ki of 22.7 nM.
Under `O=C(Cc1cccc(F)c1)NC1CCN(Cc2cccc(I)c2)CC1` [2-(3-Fluoro-phenyl)-N-[1-(3-iodo-benzyl)-piperidin-4-yl]-acetamide] stands 4.29 nM; under `O=C(Cc1ccccc1)NC1CCN(Cc2ccccc2C(F)(F)F)CC1` [2-Phenyl-N-[1-(2-trifluoromethyl-benzyl)-piperidin-4-yl]-acetamide], > 1000 nM.
`O=C(Cc1ccccc1)NC1CCN(CCc2ccccc2)CC1` [N-(1-Phenethyl-piperidin-4-yl)-2-phenyl-acetamide] came in with a Ki of 31.2 nM.
Under `O=C(Cc1ccccc1)NC1CCN(Cc2ccc(F)cc2)CC1` [N-[1-(4-Fluoro-benzyl)-piperidin-4-yl]-2-phenyl-acetamide] stands 6.59 nM.
Under `O=C(Cc1ccc(I)cc1)NC1CCN(Cc2ccccc2)CC1` [N-(1-Benzyl-piperidin-4-yl)-2-(4-iodo-phenyl)-acetamide] stands 13.8 nM; under `O=C1C=CC2C(CC(=O)NC3CCN(Cc4ccccc4)CC3)=CC(=O)OC2C1` (configuration not stated) [N-(1-Benzyl-piperidin-4-yl)-2-(7-hydroxy-2-oxo-4a,8a-dihydro-2H-chromen-4-yl)-acetamide], > 1000 nM.
Under `O=C(Cc1ccccc1F)NC1CCN(Cc2cccc(I)c2)CC1` [2-(2-Fluoro-phenyl)-N-[1-(3-iodo-benzyl)-piperidin-4-yl]-acetamide] stands 15.4 nM; under `O=C(Cc1ccccc1)NC1CCN(Cc2ccccc2I)CC1` [N-[1-(2-Iodo-benzyl)-piperidin-4-yl]-2-phenyl-acetamide], 347 nM.
Molecule `O=C(Cc1ccccn1)NC1CCN(Cc2ccccc2)CC1` [N-(1-Benzyl-piperidin-4-yl)-2-pyridin-2-yl-acetamide] registered a Ki of 236 nM.
Under `O=C(Cc1cnc[nH]1)NC1CCN(Cc2ccccc2)CC1` [N-(1-Benzyl-piperidin-4-yl)-2-(1H-imidazol-4-yl)-acetamide] stands 248 nM.
Under `O=C(Cc1ccccc1)NC1CCN(Cc2ccc(F)c(F)c2)CC1` [N-[1-(3,4-Difluoro-benzyl)-piperidin-4-yl]-2-phenyl-acetamide] stands 6.3 nM; under `O=C(Cc1cccc2ccccc12)NC1CCN(Cc2ccccc2)CC1` [N-(1-Benzyl-piperidin-4-yl)-2-naphthalen-1-yl-acetamide], 4.64 nM; under `O=C(Cc1cccc(F)c1)NC1CCN(Cc2ccc(F)cc2)CC1` [N-[1-(4-Fluoro-benzyl)-piperidin-4-yl]-2-(3-fluoro-phenyl)-acetamide], 5.51 nM.
In the case of `O=C(Cc1ccccc1)NC1CCN(Cc2ccc3ccccc3c2)CC1` [N-(1-Naphthalen-2-ylmethyl-piperidin-4-yl)-2-phenyl-acetamide], the Ki was determined as 23.9 nM.
The molecule `COc1ccc2c(c1)C(CC(=O)NC1CCN(Cc3ccccc3)CC1)CC2=O` (configuration not stated) [N-(1-Benzyl-piperidin-4-yl)-2-(6-methoxy-3-oxo-indan-1-yl)-acetamide] returned a Ki of 299 nM.
Under `O=C(Cc1cccc(Cl)c1)NC1CCN(Cc2ccc(I)cc2)CC1` [2-(3-Chloro-phenyl)-N-[1-(4-iodo-benzyl)-piperidin-4-yl]-acetamide] stands 3.21 nM; under `COc1ccc2[nH]cc(CC(=O)NC3CCN(Cc4ccccc4)CC3)c2c1` [N-(1-Benzyl-piperidin-4-yl)-2-(5-methoxy-1H-indol-3-yl)-acetamide], 125 nM.
Consider `O=C(Cc1cccc(Cl)c1)NC1CCN(Cc2ccc(F)cc2)CC1` [2-(3-Chloro-phenyl)-N-[1-(4-fluoro-benzyl)-piperidin-4-yl]-acetamide], for which the affinity corresponds to a Ki of 1.15 nM.
The molecule `O=C(Cc1ccccc1)NC1CCN(Cc2ccc(I)cc2)CC1` [N-[1-(4-Iodo-benzyl)-piperidin-4-yl]-2-phenyl-acetamide] showed a Ki of 9.03 nM.
Under `O=C(Cc1ccccc1)NC1CCN(Cc2cccc(I)c2)CC1` [N-[1-(3-Iodo-benzyl)-piperidin-4-yl]-2-phenyl-acetamide] stands 6.75 nM; under `O=C(Cc1ccccc1)NC1CCN(Cc2ccc([N+](=O)[O-])cc2)CC1` [N-[1-(4-Nitro-benzyl)-piperidin-4-yl]-2-phenyl-acetamide], 19.1 nM; under `O=C(Cc1cccnc1)NC1CCN(Cc2ccccc2)CC1` [N-(1-Benzyl-piperidin-4-yl)-2-pyridin-3-yl-acetamide], 269 nM.
In turn, `O=C(Cc1cccc(Br)c1)NC1CCN(Cc2cccc(I)c2)CC1` [2-(3-Bromo-phenyl)-N-[1-(3-iodo-benzyl)-piperidin-4-yl]-acetamide] showed a Ki of 3.49 nM.
Under `O=C(Cc1ccccc1)NC1CCN(Cc2cccc(C(F)(F)F)c2)CC1` [2-Phenyl-N-[1-(3-trifluoromethyl-benzyl)-piperidin-4-yl]-acetamide] stands 141 nM; under `O=C(Cc1ccccc1)NC1CCN(Cc2ccc(Cl)c(Cl)c2)CC1` [N-[1-(3,4-Dichloro-benzyl)-piperidin-4-yl]-2-phenyl-acetamide], 7.24 nM; under `O=C(Cc1ccccc1F)NC1CCN(Cc2ccc(I)cc2)CC1` [2-(2-Fluoro-phenyl)-N-[1-(4-iodo-benzyl)-piperidin-4-yl]-acetamide], 4.2 nM.
Under `O=C(Cc1cccc(F)c1)NC1CCN(Cc2ccc(I)cc2)CC1` [2-(3-Fluoro-phenyl)-N-[1-(4-iodo-benzyl)-piperidin-4-yl]-acetamide] stands 2.25 nM; under `O=C(Cc1ccsc1)NC1CCN(Cc2ccccc2)CC1` [N-(1-Benzyl-piperidin-4-yl)-2-thiophen-3-yl-acetamide], 7.2 nM.

These data come from BindingDB's records for doi:10.1021/jm010384j (Wake Forest University School of Medicine, 2001).
